The assay addresses Mcl-1 protein (UniProtKB Q07820) (Homo sapiens (Human), UniProt Q07820). The assay can be described thus: Inhibition of Mcl-1 by the fluorescence polarisation assay (Example A, Method A). It counts as binding. The conditions noted are these: fluorescence polarization assay. The method, boiled down:
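Protein (5 nM) and fluorescein-tagged peptide tracer (1 nM) incubated with 11-point compound series for 2 h at room temperature in HEPES/NaCl/Tween 20 buffer, pH 7.4, 5% DMSO. Displacement read as decrease in polarisation; IC50 fitted by 4-parameter logistic, converted to Ki (cKi or eKi).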

Sequence of Mcl-1 protein (Q07820 whole entry): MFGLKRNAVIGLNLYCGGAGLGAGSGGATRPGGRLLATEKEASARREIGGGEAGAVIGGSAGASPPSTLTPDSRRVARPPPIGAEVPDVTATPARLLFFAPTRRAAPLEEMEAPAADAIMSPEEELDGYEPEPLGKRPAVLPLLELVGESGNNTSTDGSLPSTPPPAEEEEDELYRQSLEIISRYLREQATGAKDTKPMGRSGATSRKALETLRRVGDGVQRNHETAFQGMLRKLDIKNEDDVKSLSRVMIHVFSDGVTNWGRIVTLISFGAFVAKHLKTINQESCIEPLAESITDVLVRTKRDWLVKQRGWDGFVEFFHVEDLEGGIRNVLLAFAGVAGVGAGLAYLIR

In the case of `O=C(NCc1ccccc1)C1=Cc2ccccc2[C@]12CC[C@@](Nc1cccc(Cl)c1)(C(=O)O)CC2` [Example 180, (1s,4s)-2′-(benzylcarbamoyl)-4-(3-chloroanilino)spiro[cyclohexane-1,1′-indene]-4-carboxylic acid], the Ki was determined as 12800 nM. With `CN(Cc1ccccc1)C(=O)C1=Cc2ccccc2[C@]12CC[C@@](Nc1cccc(Cl)c1)(C(=O)O)CC2` [Example 181, (1s,4s)-2′-[benzyl(methyl)carbamoyl]-4-(3-chloroanilino)spiro[cyclohexane-1,1′-indene]-4-carboxylic acid] the figure was 11400 nM.

As for `Cc1cncn(CCCC2=Cc3ccccc3[C@]23CC[C@@](Nc2cccc(Cl)c2)(C(=O)O)CC3)c1=O` [Example 182, (1r,4r)-4-(3-chloroanilino)-2′-[3-(5-methyl-6-oxopyrimidin-1 (6H)-yl)propyl]spiro[cyclohexane-1,1′-indene]-4-carboxylic acid], the Ki was 1620 nM.

As to `Cc1cncn(CCCC2Cc3ccccc3[C@]23CC[C@@](Nc2cccc(Cl)c2)(C(=O)O)CC3)c1=O` (stereo partly shown) [Example 183, (1r,4r)-4-(3-chloroanilino)-2′-[3-(5-methyl-6-oxopyrimidin-1 (6H)-yl)propyl]-2′,3′-dihydrospiro[cyclohexane-1,1′-indene]-4-carboxylic acid], the Ki came out at 2480 nM. The result for `CN(Cc1ccccc1)CC1=Cc2ccccc2[C@]12CC[C@@](Nc1cccc(Cl)c1)(C(=O)O)CC2` [Example 184, (1s,4s)-2′-{[benzyl(methyl)amino]methyl}-4-(3-chloroanilino)spiro[cyclohexane-1,1′-indene]-4-carboxylic acid] reads 1230 nM; that for `O=C(O)[C@]1(Nc2cccc(Cl)c2)CC[C@@]2(CC1)c1ccccc1CC2CCOc1cccc2[nH]ccc12` (stereo partly shown) [Example 185, (1r,4r)-4-(3-chloroanilino)-2′-{2-[(1H-indol-4-yl)oxy]ethyl}-2′,3′-dihydrospiro[cyclohexane-1,1′-indene]-4-carboxylic acid], 74 nM; that for `O=C(O)[C@]1(Nc2cccc(Cl)c2)CC[C@@]2(CC1)c1ccccc1CC2CCOc1ccnc2ccsc12` (stereo partly shown) [Example 186, (1r,4r)-4-(3-chloroanilino)-2′-{2-[(thieno[3,2-b]pyridin-7-yl)oxy]ethyl}-2′,3′-dihydrospiro[cyclohexane-1,1′-indene]-4-carboxylic acid], 123 nM. With `O=C(O)[C@]1(Nc2cccc(Cl)c2)CC[C@@]2(CC1)c1ccccc1CC2CCOc1ccnc(F)c1` (stereo partly shown) [Example 187, (1r,4r)-4-(3-chloroanilino)-2′-{2-[(2-fluoropyridin-4-yl)oxy]ethyl}-2′,3′-dihydrospiro[cyclohexane-1,1′-indene]-4-carboxylic acid] the figure was 271 nM; with `O=C(O)[C@]1(Nc2cccc(Cl)c2)CC[C@@]2(CC1)c1ccccc1CC2CCOc1ccncc1F` (stereo partly shown) [Example 188, (1r,4r)-4-(3-chloroanilino)-2′-{2-[(3-fluoropyridin-4-yl)oxy]ethyl}-2′,3′-dihydrospiro[cyclohexane-1,1′-indene]-4-carboxylic acid], 214 nM; with `Cc1cnccc1OCCC1=Cc2ccccc2[C@]12CC[C@@](Nc1cccc(Cl)c1)(C(=O)O)CC2` [Example 189, (1r,4r)-4-(3-chloroanilino)-2′-{2-[(3-methylpyridin-4-yl)oxy]ethyl}spiro[cyclohexane-1,1′-indene]-4-carboxylic acid], 121 nM.

`Cc1cnccc1OCCCOC1=Cc2ccccc2[C@]12CC[C@@](Nc1cccc(Br)c1)(C(=O)O)CC2` [Example 193, (1s,4s)-4-(3-bromoanilino)-2′-{3-[(3-methylpyridin-4-yl)oxy]propoxy}spiro[cyclohexane-1,1′-indene]-4-carboxylic acid]: the inhibitory constant (Ki) is 531 nM. With `O=C(O)[C@]1(Nc2cccc(Cl)c2)CC[C@]2(CC1)C(C#CCCOc1ccnc3ccsc13)=Cc1ccccc12` [Example 195, (1s,4s)-4-(3-chloroanilino)-2′-{4-[(thieno[3,2-b]pyridin-7-yl)oxy]but-1-yn-1-yl}spiro[cyclohexane-1,1′-indene]-4-carboxylic acid] the figure was 266 nM; with `O=C(O)[C@]1(Nc2cccc(Cl)c2)CC[C@@]2(CC1)c1ccccc1CC2CCCN1CCOCC1` (stereo partly shown) [Example 196, (1r,4r)-4-(3-chloroanilino)-2′-[3-(morpholin-4-yl)propyl]-2′,3′-dihydrospiro[cyclohexane-1,1′-indene]-4-carboxylic acid], 9470 nM. The result for `COCCCC1Cc2ccccc2[C@]12CC[C@@](Nc1cccc(Cl)c1)(C(=O)O)CC2` (stereo partly shown) [Example 197, (1r,4r)-4-(3-chloroanilino)-2′-(3-methoxypropyl)-2′,3′-dihydrospiro[cyclohexane-1,1′-indene]-4-carboxylic acid] reads 1380 nM.

`CN1CCN(CCCC2Cc3ccccc3[C@]23CC[C@@](Nc2cccc(Cl)c2)(C(=O)O)CC3)CC1=O` (stereo partly shown) [Example 198, (1r,4r)-4-(3-chloroanilino)-2′-[3-(4-methyl-3-oxopiperazin-1-yl)propyl]-2′,3′-dihydrospiro[cyclohexane-1,1′-indene]-4-carboxylic acid]: the Ki amounted to 7480 nM. Consider `CC1=C(C)[C@]2(CC[C@](Nc3cccc(Br)c3)(C(=O)O)CC2)c2ccccc21` [Example 202, (1r,4r)-4-(3-bromoanilino)-2′,3′-dimethylspiro[cyclohexane-1,1′-indene]-4-carboxylic acid], for which the inhibition constant Ki was found to be 300 nM. With `CC1=C(C)[C@]2(CC[C@@](Nc3cccc(Br)c3)(C(=O)O)CC2)c2ccccc21` [Example 203, (1s,4s)-4-(3-bromoanilino)-2′,3′-dimethylspiro[cyclohexane-1,1′-indene]-4-carboxylic acid] the figure was 40100 nM. With `CC1=C(C(C)C)c2ccccc2[C@]12CC[C@@](Nc1cccc(Br)c1)(C(=O)O)CC2` [Example 204, (1r,4r)-4-(3-bromoanilino)-2′-methyl-3′-(propan-2-yl)spiro[cyclohexane-1,1′-indene]-4-carboxylic acid] the figure was 22400 nM; with `CCC1=C(C)[C@]2(CC[C@](Nc3cccc(Cl)c3)(C(=O)O)CC2)c2ccccc21` [Example 205, (1r,4r)-4-(3-chloroanilino)-3′-ethyl-2′-methylspiro[cyclohexane-1,1′-indene]-4-carboxylic acid], 1710 nM. Regarding `CCC1=C(C)[C@]2(CC[C@@](Nc3cccc(Cl)c3)(C(=O)O)CC2)c2ccccc21` [Example 206, (1s,4s)-4-(3-chloroanilino)-3′-ethyl-2′-methylspiro[cyclohexane-1,1′-indene]-4-carboxylic acid], the inhibitory constant (Ki) amounted to 4680 nM. `O=C(O)[C@]1(Nc2cccc(Br)c2)CC[C@@]2(CC1)C(c1ccccc1)=Cc1ccccc12` [Example 209, (1r,4r)-4-(3-bromoanilino)-2′-phenylspiro[cyclohexane-1,1′-indene]-4-carboxylic acid]: the inhibitory constant (Ki) amounted to 35000 nM. For the compound `O=C(O)[C@]1(Nc2cccc(Br)c2)CC[C@@]2(CC1)c1ccccc1C[C@@H]2c1ccccc1` [Example 211, (1r,2′R,4R)-4-(3-bromoanilino)-2′-phenyl-2′,3′-dihydrospiro[cyclohexane-1,1′-indene]-4-carboxylic acid], the Ki came to 11000 nM. With `Cn1cc(C2Cc3ccccc3[C@]23CC[C@@](Nc2cccc(Br)c2)(C(=O)O)CC3)cn1` (stereo partly shown) [Example 212, (1r,4r)-4-(3-bromoanilino)-2′-(1-methyl-1H-pyrazol-4-yl)-2′,3′-dihydrospiro[cyclohexane-1,1′-indene]-4-carboxylic acid] the figure was 9470 nM; with `Cn1cc(C2Cc3ccccc3[C@]23CC[C@](Nc2cccc(Br)c2)(C(=O)O)CC3)cn1` (stereo partly shown) [Example 213, (1s,4s)-4-(3-bromoanilino)-2′-(1-methyl-1H-pyrazol-4-yl)-2′,3′-dihydrospiro[cyclohexane-1,1′-indene]-4-carboxylic acid], 87300 nM. The result for `Cc1ccccc1C1Cc2ccccc2C12CCC(Nc1cccc(Br)c1)(C(=O)O)CC2` (stereo not shown) [Example 214, 4-(3-bromoanilino)-2′-(2-methylphenyl)-2′,3′-dihydrospiro[cyclohexane-1,1′-indene]-4-carboxylic acid] reads 7900 nM.

For the compound `Cc1cccc(C2Cc3ccccc3C23CCC(Nc2cccc(Br)c2)(C(=O)O)CC3)c1` (stereo not shown) [Example 215, 4-(3-bromoanilino)-2′-(3-methylphenyl)-2′,3′-dihydrospiro[cyclohexane-1,1′-indene]-4-carboxylic acid], the inhibition constant (Ki) worked out at 846 nM.

In the case of `Cc1ccc(C2Cc3ccccc3C23CCC(Nc2cccc(Br)c2)(C(=O)O)CC3)cc1` (stereo not shown) [Example 216, 4-(3-bromoanilino)-2′-(4-methylphenyl)-2′,3′-dihydrospiro[cyclohexane-1,1′-indene]-4-carboxylic acid], the Ki was 1740 nM. Turning to `COc1ccc([C@@H]2Cc3ccccc3[C@]23CC[C@@](Nc2cccc(Br)c2)(C(=O)O)CC3)cc1` [Example 217, (1r,2′S,4S)-4-(3-bromoanilino)-2′-(4-methoxyphenyl)-2′,3′-dihydrospiro[cyclohexane-1,1′-indene]-4-carboxylic acid], the Ki was 484 nM. With `COc1ccc([C@H]2Cc3ccccc3[C@]23CC[C@@](Nc2cccc(Br)c2)(C(=O)O)CC3)cc1` [Example 218, (1r,2′R,4R)-4-(3-bromoanilino)-2′-(4-methoxyphenyl)-2′,3′-dihydrospiro[cyclohexane-1,1′-indene]-4-carboxylic acid] the figure was 13400 nM.

Regarding `COc1cccc([C@@H]2Cc3ccccc3[C@]23CC[C@@](Nc2cccc(Br)c2)(C(=O)O)CC3)c1` [Example 219, (1r,2′S,4S)-4-(3-bromoanilino)-2′-(3-methoxyphenyl)-2′,3′-dihydrospiro[cyclohexane-1,1′-indene]-4-carboxylic acid], the Ki stood at 381 nM.

Turning to `COc1cccc([C@H]2Cc3ccccc3[C@]23CC[C@@](Nc2cccc(Br)c2)(C(=O)O)CC3)c1` [Example 220, (1r,2′R,4R)-4-(3-bromoanilino)-2′-(3-methoxyphenyl)-2′,3′-dihydrospiro[cyclohexane-1,1′-indene]-4-carboxylic acid], the Ki was 7230 nM.

The record behind these values is patent US20240150293A1, “SPIROCYCLOHEXANE DERIVATIVES, PHARMACEUTICAL COMPOSITIONS CONTAINING THEM AND THEIR USES AS ANTI-APOPTOTIC INHIBITORS” (LES LABORATOIRES SERVIER, priority 2021, published 2024).
